Square brackets hold non-standard residues; d marks the D form. Peptide text beside a SMILES is read from it. * marks the point of attachment. Dip = N[C@H](C(=O)O)C(c1ccccc1)c1ccccc1; CH2(1-naphthyl) = c1ccc2c(C*)cccc2c1; Abu(4,4-F2) = N[C@@H](CC(F)F)C(=O)O; Hyp = O=C(O)[C@@H]1C[C@@H](O)CN1; Cha = N[C@@H](CC1CCCCC1)C(=O)O; Chg = N[C@H](C(=O)O)C1CCCCC1; Ac3c = NC1(C(=O)O)CC1

Series [1] has as its system Hepatitis C virus. In words: Antiviral activity against HCV genotype 1b expressing NS5B S365A mutant variant. It counts as functional, organism-based, Hepacivirus hominis.
The subject of series [2] is Hepatitis C virus. As to the kind of experiment: Antiviral activity against HCV genotype 1b. It counts as functional, organism-based, Hepacivirus hominis.
In series [3] the test system is Hepatitis C virus. In words: Antiviral activity against HCV genotype 1b by replicon assay. It is filed as functional, organism-based, Hepacivirus hominis. (In antiviral work, replicon cells carry a viral genome segment that copies itself.)
Series [4] deals with Hepatitis C virus. In words: Inhibition of HCV genotype 1a. It is filed as functional, organism-based, Hepacivirus hominis.
Series [5] deals with T1, Hepatitis C virus serine protease, NS3/NS4A (Hepatitis C virus, UniProt A3EZI9+D2K2A8). In words: Inhibition of HCV NS4A-NS3 protease. It counts as protein-complex assay, Hepacivirus hominis.
Series [6] concerns the target T1, Hepatitis C virus serine protease, NS3/NS4A. As to the kind of experiment: Inhibition of C-terminal HCV NS4A-NS3 protease. It counts as protein-complex assay, Hepacivirus hominis.
Series [7] relates to Hepatitis C virus. In words: Antiviral activity against Hepatitis C virus. It is filed as functional, organism-based, Hepacivirus hominis.
The nature of series [8]: Oral bioavailability in rat plasma. To be noted: in vivo. It is filed as ADME, organism-based.
Series [9] relates to Hepatitis C virus. As to the kind of experiment: Antiviral activity against HCV GT1a-genotype assessed as inhibition of viral replication. It is filed as functional, organism-based, Hepacivirus hominis.
Series [10] relates to Hepatitis C virus. As to the kind of experiment: Antiviral activity against HCV GT1b-genotype assessed as viral growth inhibition measured after 24 hrs. It counts as functional, organism-based, Hepacivirus hominis. To be noted: Hepatitis C virus, GT1b-genotype, 24 h.
Series [11] relates to Hepatitis C virus. In words: Antiviral activity against HCV genotype 1a. It counts as functional, organism-based, Hepacivirus hominis.
Series [12] in a line: Half life in dog liver microsomes. It counts as ADME, Canis lupus familiaris, Microsome. For orientation: Liver microsomes are a subcellular fraction often used to study metabolism.
Series [13] has as its system Hepatitis C virus. As to the kind of experiment: Antiviral activity against HCV genotype 1b Tyr93His mutant. To be noted: Hepacivirus hominis.
Series [14] has as its system Hepatitis C virus. As to the kind of experiment: Antiviral activity against HCV genotype 1b harboring NS5A Y93H mutant. It is filed as functional, organism-based, Hepacivirus hominis.
Series [15] can be described thus: Binding affinity to Hepatitis C virus NS3 assessed as inhibition constant. Also on record: species or system Hepacivirus hominis.
A short description of series [16]: Binding affinity to Hepatitis C virus NS3 protease (1027 to 1206 residues) expressed in Escherichia coli assessed as inhibition constant. Also on record: species or system Hepacivirus hominis.
Series [17] addresses T1, Hepatitis C virus serine protease, NS3/NS4A. As to the kind of experiment: Inhibition of Hepatitis C virus NS3/NS4A protease. It is filed as protein-complex assay, Hepacivirus hominis.

T1 sequence (D2K2A8 whole entry): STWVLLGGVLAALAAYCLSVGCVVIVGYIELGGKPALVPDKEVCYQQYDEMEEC
T1 sequence (A3EZI9 whole entry): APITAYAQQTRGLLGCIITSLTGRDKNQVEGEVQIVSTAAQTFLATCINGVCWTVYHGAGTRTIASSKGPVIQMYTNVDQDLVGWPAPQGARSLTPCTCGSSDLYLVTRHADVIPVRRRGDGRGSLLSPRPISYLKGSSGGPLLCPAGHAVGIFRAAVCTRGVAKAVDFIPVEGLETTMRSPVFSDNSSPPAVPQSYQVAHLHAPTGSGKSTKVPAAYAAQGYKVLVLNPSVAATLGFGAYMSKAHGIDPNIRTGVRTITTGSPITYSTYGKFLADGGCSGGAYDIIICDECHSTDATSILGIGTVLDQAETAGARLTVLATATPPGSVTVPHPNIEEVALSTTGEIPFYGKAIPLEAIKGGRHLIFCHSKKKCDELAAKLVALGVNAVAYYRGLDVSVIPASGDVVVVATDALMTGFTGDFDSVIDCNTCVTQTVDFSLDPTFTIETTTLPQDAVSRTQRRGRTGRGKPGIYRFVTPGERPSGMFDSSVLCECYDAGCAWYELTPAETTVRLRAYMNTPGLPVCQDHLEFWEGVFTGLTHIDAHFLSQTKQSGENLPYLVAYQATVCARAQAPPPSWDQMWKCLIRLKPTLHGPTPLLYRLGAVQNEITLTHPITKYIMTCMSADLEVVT

With `O=C(O)/C=C/c1ccc(NC(=O)C2(NC(=O)c3ccc4c(C5CCCCC5)c5n(c4c3)CC(=O)Nc3ccccc3-5)CCCC2)cc1`, a half-maximal effect in series [1] (EC50) was put at 8 nM.
Regarding `O=C(Nc1ccc(/C=C/c2ccc(NC(=O)[C@@H]3CCCN3C(=O)CC3CC3)cc2)cc1)[C@@H]1CCCN1C(=O)CC1CC1`, in series [2], it took 62 nM to reach a half-maximal effect (EC50).
On to `C=C[C@@H]1C[C@]1(NC(=O)[C@@H]1C[C@@H](Oc2cc(-c3ccccc3)nc3cc(OC)ccc23)CN1C(=O)[C@@H](NC(=O)OC(C)(C)C)C(C)(C)C)C(=O)O`, for which, in series [3], a half-maximal response (EC50) required 550 nM. Besides, the IC50 (as a rule, the concentration needed to halve the response being measured) in [4] came to 54 nM.
For `COc1ccc2c(O[C@@H]3C[C@H]4C(=O)N[C@]5(C(=O)O)C[C@H]5/C=C\CCCCC[C@H](NC(=O)OC(C)(C)C)C(=O)N4C3)cc(-c3ccccc3)nc2c1`, the 50% inhibitory concentration (IC50) in series [5] was 3 nM; in series [6] it was 11 nM. Also, the response in series [7] was half-maximal at 1.2 nM (EC50). In series [8], the F was determined as 42%.
As for `CN(C)S(=O)(=O)NC(=O)c1ccc2c(C3CCCCC3)c3n(c2c1)C[C@@]1(C(=O)N2CCOCC2)C[C@H]1c1ccccc1-3`, the EC50 (usually the concentration needed to bring the measured effect to its halfway point) in series [9] worked out at 41 nM; in series [10], 51 nM.
`O=C(O)c1ccc2c(C3CCCCC3)c3n(c2c1)CC(C(=O)N1CCOCC1)=Cc1ccccc1-3`: the concentration giving a half-maximal response (EC50) in series [9] was 404 nM; in series [10] it was 359 nM.
For `COc1ccc2c(c1)C=C(C(=O)N1CCOCC1)Cn1c-2c(C2CCCCC2)c2ccc(C(=O)NS(=O)(=O)N(C)C)cc21`, the EC50 stood at 61 nM in series [9] and 62 nM in [10].
With `CN(C)S(=O)(=O)NC(=O)c1ccc2c(C3CCCCC3)c3n(c2c1)C[C@]1(C(=O)N2CCOCC2)C[C@@H]1c1ccccc1-3`, the EC50 in series [9] came out at 472 nM; in [10], 336 nM.
Regarding `CN(C)[C@@H](C(=O)N1CCC[C@H]1c1ncc(-c2ccc(-c3ccc(-c4cnc([C@@H]5CCCN5C(=O)[C@@H](c5ccccc5)N(C)C)[nH]4)cc3)cc2)[nH]1)c1ccccc1`, the EC50 in series [11] amounted to 0.037 nM; in [2] it was 0.042 nM.
Take `COC(=O)N[C@@H](C(=O)N1CCC[C@H]1c1ncc(-c2ccc(-c3ccc(-c4cnc([C@@H]5CCCN5C(=O)[C@H](NC(=O)OC)c5ccccc5)[nH]4)cc3)cc2)[nH]1)c1ccccc1`: the results for the EC50 in series [11] and in series [2] were 0.028 nM and 0.0067 nM, respectively.
`C=C[C@@H]1C[C@]1(NC(=O)[C@@H]1C[C@@H](Oc2cc(-c3ccccc3)nc3cc(OC)ccc23)CN1C(=O)[C@@H](NC(=O)OC(C)(C)C)C(C)(C)C)C(=O)NS(=O)(=O)C1CC1`: the half-life (in general, the time needed for the level to fall by half in the phase considered) in series [12] turned out to be 2.83 h.
For `O=C1N[C@H]2[C@H](CS[C@H]2CCCCC(=O)N2CCC[C@H]2C(=O)Nc2ccc(/C=C/c3ccc(NC(=O)[C@@H]4CCCN4C(=O)Cc4ccccc4)cc3)cc2)N1`, the EC50 in [11] was 33 nM; in series [2], > 10000 nM; in series [13] it was > 10000 nM.
`C[C@H](NC(=O)Cc1ccccc1)C(=O)Nc1ccc(C2(O)C(=O)N(Cc3ccco3)C(=S)N2c2cccc(F)c2)cc1` (stereo not given in full) came in with an EC50 in series [14] of 43 nM.
For `CC(C)C[C@H](NC(=O)[C@H](CCC(=O)O)NC(=O)OC(C)(C)C)C(=O)NC(CC(F)F)C(=O)C(=O)O` (stereo not given in full), the Ki – broadly, the dissociation constant of the complex between target and ligand, obtained from inhibition or displacement – stood at 17000 nM in series [15] and 27 nM in [16].
The compound `Fc1cccc(NC(=S)NCc2ccco2)c1` showed a concentration for a half-maximal effect (EC50) in series [14] of 0.6 nM.
`COc1ccc2c(c1)[C@@H]1C[C@]1(C(=O)N1C[C@@H](C)O[C@@H](C)C1)Cn1c-2c(C2CCCCC2)c2ccc(C(=O)NS(=O)(=O)N(C)C)cc21`: the EC50 amounted to 1 nM in series [9] and 3 nM in series [10].
`CC(=O)N[C@@H](CC(=O)O)C(=O)N[C@@H](CCC(=O)O)C(=O)N[C@H](C(=O)N[C@@H](CCC(=O)O)C(=O)N[C@@H](CC1CCCCC1)C(=O)N[C@@H](CC(F)F)C(=O)O)C(c1ccccc1)c1ccccc1` (Ac-DE[Dip]E[Cha][Abu(4,4-F2)]-OH) gave an inhibition constant Ki in series [17] of 3 nM.
As to `CC(=O)N[C@H](C(=O)N[C@H](C(=O)N1C[C@H](OCc2cccc3ccccc23)C[C@H]1C(=O)NC1(C(=O)O)CC1)C(C)C)C1CCCCC1` (Ac-[Chg]V[Hyp](CH2(1-naphthyl))[Ac3c]-OH), 3500 nM corresponded to half-maximal inhibition in series [5] (IC50).
Regarding `COc1ccc2c(c1)C1CC1(C(=O)N1C3CCC1CN(C)C3)Cn1c-2c(C2CCCCC2)c2ccc(C(=O)NS(=O)(=O)N(C)C)cc21` (racemic), the EC50 in [11] came to 3 nM; in [2] it was 208 nM.
Ac-DEMEEC-OH: the Ki in series [15] stood at 600 nM.

These data come from ChEMBL document CHEMBL5252531, “2015 Philip S. Portoghese Medicinal Chemistry Lectureship. Curing Hepatitis C Virus Infection with Direct-Acting Antiviral Agents: The Arc of a Medicinal Chemistry Triumph” (J Med Chem, 2016).
